For orientation: IC50 means the concentration that gives 50% inhibition. A lower IC50 goes with greater potency. What is called GI50 is the concentration at which growth is held to half of that of the control. Higher therefore signals lower sensitivity of the cells.

Results on one compound are retold here after patent publication US20240366612A1, “COMPOUNDS AND METHODS FOR MODULATING NUCLEIC ACID SPLICING” (REMIX THERAPEUTICS INC., priority 2021, published 2024).

Data set [1] relates to HiBiT-tagged HTT protein in K562 cells. As to the kind of experiment: HiBiT protein abundance assay, HTT. Format: cell-based, human. The conditions noted are these: HiBiT-modified K562 cells, 24 hours, luminescence. The method, then: (§1) Compounds described herein were used to screen for effects on quantitative protein abundance using a HiBit assay system (Promega). Quantitative protein abundance was determined by measuring the protein levels of HiBit-tagged protein targets expressed in cell culture via luminescence using the Nano-Glo HiBiT Lytic Detection System, which uses a split complementation assay format to reconstitute NanoBiT enzyme to generate a luminescent signal. A protein abundance assay was developed such that endogenous protein targets could be modified with the HiBiT peptide tag and their abundance could be assessed after compound treatment. Briefly, K562 cell lines containing a HiBiT-modification were treated with various compounds described herein (e.g., compounds of Formulas (I), (II), or (III)). After treatment for 24 hours, the protein abundance of a specific target was determined by measuring luminescence.
(§2) • Promega Nano-Glo HiBiT Lytic Detection System (cat #N3030) • Corning 384-well TC-treated microplates (cat #3570) • Synthego Engineered Cells Knock-In Clones
(§3) Cells were maintained in IMDM with 10% FBS. Before the assay, cells were diluted with […] growth media (IMDM+1% FBS media) and were seeded in a 384-well plate at a density of 10000 cells/well (for each cell line listed in Table 5). Each compound was prepared as a 10-point 3-fold serial dilution in DMSO with the top dose at a final concentration of 10 μM in the well. Unmodified K562 cells were added at the previously specified density with DMSO to serve as an assay baseline and positive control (PC) and DMSO only with the respective modified cell lines was added to the negative control (NC) columns. Final DMSO concentration was kept at or below 0.25%. Treated cell plates were placed in an incubator at 37° C. with 5% CO2 for 24 hours. After 24 hours, 25 μL of Complete HiBit Lytic reagent was added to each well at room temperature (e.g. one plate requiring 10 mL Lytic Buffer, 100 μL LgBiT Protein, 200 μL Lytic Substrate), shaken for 5 minutes at 600 RPM, then left to sit for 10 minutes for signal to stabilize before reading on a Spark Cyto plate reader (Tecan) with a 500 ms measurement time.
(§4) To determine compound effects on protein abundance of each target in Table 5, the percent response for each respective cell line was calculated at each compound concentration as follows:
(§5) For the normalized response at each concentration, a four-parameter logistical regression was fit to the data and the response was interpolated at the 50% value to determine a concentration for protein abundance at 50% (IC50) the untreated control.
Background: HiBiT is a short tag that completes a luciferase, so light tracks the accessible tagged protein.

The nature of data set [2]: Cell Titer Glo 2.0 cell viability assay. Particulars: human, K562 cells.
Data set [3] deals with HiBiT-tagged MYB protein in K562 cells. Nature of the data set: HiBiT protein abundance assay, MYB. The format is cell-based, human. The conditions noted are these: HiBiT-modified K562 cells, 24 hours, luminescence. The method, then:
as §1, §2, §3, §4, §5

Data set [4] relates to HiBiT-tagged Target C protein in K562 cells. As to the kind of experiment: HiBiT protein abundance assay, Target C. The conditions noted are these: HiBiT-modified K562 cells, 24 hours, luminescence. Format: cell-based, human. As to the method: as §1, §2, §3, §4, §5

As for `Cc1c(O)c(-c2nc3ncn(C4CCNCC4)c(=O)c3s2)cc2cn(C)nc12` [Compound 336, 2-(6-hydroxy-2,7-dimethylindazol-5-yl)-6-(piperidin-4-yl)-[1,3]thiazolo[4,5-d]pyrimidin-7-one], the IC50 in data set [1], in data set [3] and in data set [4] was 100 to 1000 nM each time. In data set [2], this compound displayed a 50% growth inhibitory concentration (GI50) at 72 h of 1 to 10 µM.
